Experimental data: patent US20250313563A1, “GLYCOGEN SYNTHASE KINASE 3 INHIBITORS AND USES THEREOF” (The Broad Institute, Inc., priority 2022, published 2025)
Like-named read-outs stand apart in the source and are kept apart here.

Columns and labels:
[1] = molecular target: GSK3α (GST-full length GSK3α) (Homo sapiens (Human), UniProt P49840); assay: GSK3α TR-FRET kinase assay; format: biochemical
In short: (§1)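 Compound preincubated 30 min, then 1 nM GST-full-length GSK3α or GSK3b run 100 min at ambient temperature with 200 nM biotinylated, S645-prephosphorylated glycogen synthase 631-650 peptide in Tris pH 7.5, MgCl2, DTT, BSA, 1% DMSO. ATP 4 μM (α) or 2 μM (β), or 1 mM. EDTA-quenched; Tb-anti-pSer641/streptavidin-d2 TR-FRET 665/615 ratio gave IC50.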

[2] = molecular target: GSK3b (GST-full length GSK3b) (Homo sapiens (Human), UniProt P49841); assay: GSK3b TR-FRET kinase assay; format: biochemical
In short: as §1

[3] = 1 nM GSK3α, 4 μM ATP, 30 minute preincubation, Table 16, read-out: GSK3-A TR-FRET BIOCHEMICAL (TR-FRET), IC50
[4] = 1 nM GSK3b, 2 μM ATP, 30 minute preincubation, Table 16, read-out: GSK3-B TR-FRET BIOCHEMICAL (TR-FRET), IC50
[5] = read-out: GSK3-A (TR-FRET 1 mM ATP), GMean, IC50, 1 mM ATP, geometric mean
[6] = read-out: GSK3-B (TR-FRET 1 mM ATP), GMean, IC50, 1 mM ATP, geometric mean
[7] = 1 nM GSK3α, 4 μM ATP, 30 minute preincubation, read-out: GSK3-A TR-FRET BIOCHEMICAL (TR-FRET), IC50
[8] = 1 nM GSK3b, 2 μM ATP, 30 minute preincubation, read-out: GSK3-B TR-FRET BIOCHEMICAL (TR-FRET), IC50
[9] = 1 nM GSK3α, 4 μM ATP, 30 minute preincubation, Table 16, read-out: GSK3-A TR-FRET BIOCHEMICAL (TR-FRET)
[10] = 1 nM GSK3b, 2 μM ATP, 30 minute preincubation, Table 16, read-out: GSK3-B TR-FRET BIOCHEMICAL (TR-FRET)

GSK3b (GST-full length GSK3b), sequence (P49841 whole entry): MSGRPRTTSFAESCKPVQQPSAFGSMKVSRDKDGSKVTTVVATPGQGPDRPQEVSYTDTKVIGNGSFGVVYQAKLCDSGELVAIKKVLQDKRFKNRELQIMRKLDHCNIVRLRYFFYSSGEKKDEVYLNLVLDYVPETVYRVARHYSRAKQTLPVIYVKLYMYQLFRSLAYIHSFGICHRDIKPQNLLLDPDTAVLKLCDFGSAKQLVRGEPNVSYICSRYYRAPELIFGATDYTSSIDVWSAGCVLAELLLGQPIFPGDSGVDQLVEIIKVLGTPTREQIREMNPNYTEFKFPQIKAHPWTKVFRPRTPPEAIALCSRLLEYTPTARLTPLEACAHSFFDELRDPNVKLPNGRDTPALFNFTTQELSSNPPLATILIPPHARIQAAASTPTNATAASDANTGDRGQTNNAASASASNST
GSK3α (GST-full length GSK3α), sequence (P49840 whole entry): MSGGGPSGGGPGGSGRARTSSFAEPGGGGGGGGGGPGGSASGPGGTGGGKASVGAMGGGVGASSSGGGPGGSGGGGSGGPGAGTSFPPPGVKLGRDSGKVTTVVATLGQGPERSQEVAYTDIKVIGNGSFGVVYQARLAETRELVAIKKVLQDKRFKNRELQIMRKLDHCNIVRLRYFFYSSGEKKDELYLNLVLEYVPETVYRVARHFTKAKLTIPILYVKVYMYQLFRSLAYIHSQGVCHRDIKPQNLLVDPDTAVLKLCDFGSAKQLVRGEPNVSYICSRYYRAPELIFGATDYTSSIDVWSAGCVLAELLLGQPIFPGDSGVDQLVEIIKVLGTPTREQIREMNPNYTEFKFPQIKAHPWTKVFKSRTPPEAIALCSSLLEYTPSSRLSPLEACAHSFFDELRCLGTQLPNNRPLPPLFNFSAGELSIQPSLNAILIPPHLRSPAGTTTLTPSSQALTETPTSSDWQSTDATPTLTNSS

| SMILES | IC50 [1, 3] [nM] | IC50 [2, 4] [nM] | other results |
| --- | --- | --- | --- |
| CC[C@]1(c2cccc(N(C)C(=O)c3ccn(C)n3)c2)C2=C(CC(C)(C)CC2=O)Nc2n[nH]cc21 [Compound 929442] | ≤ 100 | 100 to 1000 | – |
| CC[C@@]1(c2cccc(-c3ccnnc3)c2)C2=C(CC(C)(C)CC2=O)Nc2n[nH]cc21 [Compound 929443] | > 5000 | > 5000 | – |
| CCc1cc(-c2cccc(C3(CC)C4=C(CC(C)(C)CC4=O)Nc4n[nH]cc43)c2)cc(CC)n1 (stereo not drawn) [Compound 929445] | 1000 to 5000 | > 5000 | – |
| CC1(C)CC(=O)C2=C(C1)Nc1n[nH]cc1C21CN(C2CCCCC2)C1 [Compound 929446] | 1000 to 5000 | 1000 to 5000 | – |
| CCCS(=O)(=O)c1cccc(C2(CC)C3=C(CC(C)(C)CC3=O)Nc3n[nH]cc32)c1 (stereo not drawn) [Compound 929447] | – | – | IC50 [1, 5]: ≤ 100 nM; IC50 [2, 6]: 100 to 1000 nM |
| CCN1CC2(C1)C1=C(CC(C)(C)CC1=O)Nc1n[nH]cc12 [Compound 929448] | > 5000 | > 5000 | – |
| CCC1(c2cccc(N3CCc4cnccc4C3)c2)C2=C(CC(C)(C)CC2=O)Nc2n[nH]cc21 (stereo not drawn) [Compound 929449] | 1000 to 5000 | 1000 to 5000 | – |
| CC[C@]1(c2cc(N(C)C(C)=O)ccc2F)C2=C(CC(C)(C)CC2=O)Nc2n[nH]c(C)c21 [Compound 929451] | > 5000 | > 5000 | – |
| CC[C@]1(c2cccc(N(C)c3ccnc(F)c3)c2)C2=C(CC(C)(C)CC2=O)Nc2n[nH]cc21 [Compound 929453] | 1000 to 5000 | > 5000 | – |
| CC[C@]1(c2cccc(-c3ccnnc3)c2)C2=C(CC(C)(C)CC2=O)Nc2n[nH]cc21 [Compound 929454] | ≤ 100 | ≤ 100 | IC50 [1, 5]: 100 to 1000 nM; IC50 [2, 6]: 1000 to 5000 nM |
| CC[C@@]1(c2cccc(N(C)C(=O)c3ccn(C)n3)c2)C2=C(CC(C)(C)CC2=O)Nc2n[nH]cc21 [Compound 929455] | > 5000 | > 5000 | – |
| CCC1(c2cccc(C(F)(F)F)c2)C2=C(CCN(c3ccccc3)C2=O)Nc2n[nH]cc21 (stereo not drawn) [Compound 929474] | – | – | IC50 [1, 7]: ≤ 100 nM; IC50 [2, 8]: 100 to 1000 nM |
| CC[C@]1(c2cccc(C(F)(F)F)c2)C2=C(CCN(c3ccccc3)C2=O)Nc2n[nH]cc21 [Compound 929475] | – | – | IC50 [1, 7]: > 5000 nM; IC50 [2, 8]: > 5000 nM |
| CC[C@@]1(c2cccc(C(F)(F)F)c2)C2=C(Nc3n[nH]cc31)[C@@H](C)N(Cc1ccccc1)C2=O [Compound 930330] | – | – | IC50 [1, 7]: ≤ 100 nM; IC50 [2, 8]: 100 to 1000 nM |
| CC[C@@]1(c2cccc(C(F)(F)F)c2)C2=C(Nc3n[nH]cc31)[C@H](C)N(Cc1ccccc1)C2=O [Compound 930331] | – | – | IC50 [1, 7]: ≤ 100 nM; IC50 [2, 8]: 100 to 1000 nM |
| CC[C@]1(c2cccc(C(F)(F)F)c2)C2=C(Nc3n[nH]cc31)[C@H](C)N(Cc1ccccc1)C2=O [Compound 930333] | – | – | IC50 [1, 7]: > 5000 nM; IC50 [2, 8]: > 5000 nM |
| CC1(C)CC(=O)C2=C(C1)Nc1n[nH]cc1[C@@]21CCCc2ccccc21 [Compound 930565] | 1000 to 5000 | > 5000 | – |
| CC1(C)CC(=O)C2=C(C1)Nc1n[nH]cc1[C@]21CCCc2ccccc21 [Compound 930566] | ≤ 100 | 100 to 1000 | – |
| CCC1(c2cccc(-c3ccnc4c3CCCC4)c2)C2=C(CC(C)(C)CC2=O)Nc2n[nH]cc21 (stereo not drawn) [Compound 932625] | ≤ 100 | ≤ 100 | – |
| CCC1(c2cccc(-c3ccnc(OC(C)C)c3)c2)C2=C(CC(C)(C)CC2=O)Nc2n[nH]cc21 (stereo not drawn) [Compound 932626] | 100 to 1000 | 100 to 1000 | – |
| CCC1(c2cccc(-c3ccncc3OC)c2)C2=C(CC(C)(C)CC2=O)Nc2n[nH]cc21 (stereo not drawn) [Compound 932627] | ≤ 100 | ≤ 100 | – |
| CCC1(c2cccc(-c3ccnc(OC)c3C)c2)C2=C(CC(C)(C)CC2=O)Nc2n[nH]cc21 (stereo not drawn) [Compound 932628] | ≤ 100 | 100 to 1000 | – |

| SMILES | IC50 [1, 3] [nM] | IC50 [2, 4] [nM] | other results |
| --- | --- | --- | --- |
| CCC1(c2cccc(-c3ccnc(OC(F)F)c3)c2)C2=C(CC(C)(C)CC2=O)Nc2n[nH]cc21 (stereo not drawn) [Compound 932629] | ≤ 100 | 100 to 1000 | – |
| CCC1(c2cccc(-c3cc(OC)ncc3F)c2)C2=C(CC(C)(C)CC2=O)Nc2n[nH]cc21 (stereo not drawn) [Compound 932630] | ≤ 100 | ≤ 100 | – |
| CCC1(c2cccc(-c3ccnc4ccccc34)c2)C2=C(CC(C)(C)CC2=O)Nc2n[nH]cc21 (stereo not drawn) [Compound 932631] | ≤ 100 | ≤ 100 | – |
| CC1(C)CC(=O)C2=C(C1)Nc1n[nH]cc1C21CCCN(S(=O)(=O)Cc2ccccc2)CC1 (stereo not drawn) [Compound 932632] | – | – | IC50 [1, 9]: ≤ 100 nM; IC50 [2, 10]: 100 to 1000 nM |
| CC1(C)CC(=O)C2=C(C1)Nc1n[nH]cc1C21CCCN(c2ccncc2)CC1 (stereo not drawn) [Compound 932633] | > 5000 | > 5000 | – |
| CCC1(c2cccc(N(C)c3ccc(C(F)(F)F)nc3)c2)C2=C(CC(C)(C)CC2=O)Nc2n[nH]cc21 (stereo not drawn) [Compound 932634] | ≤ 100 | 100 to 1000 | – |
| CCC1(c2cccc(-c3ccnc(C)c3)c2)C2=C(CC(C)CC2=O)Nc2n[nH]cc21 (stereo not drawn) [Compound 932637] | > 5000 | > 5000 | – |
| CCC1(c2cccc(-c3ccnc(C)c3)c2)C2=C(CC(C)CC2=O)Nc2n[nH]cc21 (stereo not drawn) [Compound 932638] | > 5000 | > 5000 | – |
| CC1(C)CC(=O)C2=C(C1)Nc1n[nH]cc1[C@@]21CCCN(S(=O)(=O)C2CC2)CC1 [Compound 932639] | – | – | IC50 [1, 9]: ≤ 100 nM; IC50 [2, 10]: 100 to 1000 nM |
| CCC1(c2cccc(N(C)c3ccnc(OC)c3)c2)C2=C(CC(C)(C)CC2=O)Nc2n[nH]cc21 (stereo not drawn) [Compound 932642] | ≤ 100 | 100 to 1000 | – |
| CCC1(c2cccc(N3CCOc4ncccc43)c2)C2=C(CC(C)(C)CC2=O)Nc2n[nH]cc21 (stereo not drawn) [Compound 932643] | 100 to 1000 | 1000 to 5000 | – |
| CCC1(c2cccc(N(C)c3ccnc(C)c3)c2)C2=C(CC(C)(C)CC2=O)Nc2n[nH]cc21 (stereo not drawn) [Compound 932645] | 100 to 1000 | 1000 to 5000 | – |
| Cn1nccc1S(=O)(=O)N1CC2(C1)C1=C(CC(C)(C)CC1=O)Nc1n[nH]cc12 [Compound 932648] | – | – | IC50 [1, 9]: ≤ 100 nM; IC50 [2, 10]: ≤ 100 nM |
| Cn1nccc1S(=O)(=O)N1CCC2(CC1)C1=C(CC(C)(C)CC1=O)Nc1n[nH]cc12 [Compound 932649] | – | – | IC50 [1, 9]: ≤ 100 nM; IC50 [2, 10]: ≤ 100 nM |
| CC(C)N1CC2(C1)C1=C(CC(C)(C)CC1=O)Nc1n[nH]cc12 [Compound 932650] | > 5000 | > 5000 | – |
| CC1(C)CC(=O)C2=C(C1)Nc1n[nH]cc1C21CN(C2CCOCC2)C1 [Compound 932651] | > 5000 | > 5000 | – |
| Cn1ccc(CN2CC3(C2)C2=C(CC(C)(C)CC2=O)Nc2n[nH]cc23)n1 [Compound 932652] | > 5000 | > 5000 | – |
| Cn1nccc1CN1CC2(C1)C1=C(CC(C)(C)CC1=O)Nc1n[nH]cc12 [Compound 932653] | 1000 to 5000 | > 5000 | – |
| CC1(C)CC(=O)C2=C(C1)Nc1n[nH]cc1C21CN(Cc2cnc3ccccn23)C1 [Compound 932654] | > 5000 | > 5000 | – |
| CC1(C)CC(=O)C2=C(C1)Nc1n[nH]cc1[C@]21CCCN(S(=O)(=O)C2CC2)CC1 [Compound 932659] | – | – | IC50 [1, 9]: ≤ 100 nM; IC50 [2, 10]: 100 to 1000 nM |
| Cn1ccc(S(=O)(=O)N2CCC[C@]3(CC2)C2=C(CC(C)(C)CC2=O)Nc2n[nH]cc23)n1 [Compound 932660] | – | – | IC50 [1, 9]: ≤ 100 nM; IC50 [2, 10]: 100 to 1000 nM |
| CCC1(c2cccc(N3CCOc4ncccc43)c2)C2=C(CC(C)(C)CC2=O)Nc2n[nH]cc21 (stereo not drawn) [Compound 932663] | – | – | IC50 [1, 9]: ≤ 100 nM; IC50 [2, 10]: ≤ 100 nM |
